# Results as given in ChEMBL document CHEMBL1155124, “Synthesis and activity of N-cyanoguanidine-piperazine P2X7 antagonists” (Bioorg Med Chem Lett, 2008).
# Calls of active or inactive are those of the source. The calls are words filed in the database; no cut-off is given here.
# Key:
# P2X purinoceptor 7 [1] = biological target: T1, P2X purinoceptor 7 (Homo sapiens, UniProt Q99572); test: Antagonist activity at human recombinant P2X7 receptor assessed as inhibition of BzATP induced calcium flux by FLIPR assay; type: functional
# T1 sequence (Q99572 whole entry): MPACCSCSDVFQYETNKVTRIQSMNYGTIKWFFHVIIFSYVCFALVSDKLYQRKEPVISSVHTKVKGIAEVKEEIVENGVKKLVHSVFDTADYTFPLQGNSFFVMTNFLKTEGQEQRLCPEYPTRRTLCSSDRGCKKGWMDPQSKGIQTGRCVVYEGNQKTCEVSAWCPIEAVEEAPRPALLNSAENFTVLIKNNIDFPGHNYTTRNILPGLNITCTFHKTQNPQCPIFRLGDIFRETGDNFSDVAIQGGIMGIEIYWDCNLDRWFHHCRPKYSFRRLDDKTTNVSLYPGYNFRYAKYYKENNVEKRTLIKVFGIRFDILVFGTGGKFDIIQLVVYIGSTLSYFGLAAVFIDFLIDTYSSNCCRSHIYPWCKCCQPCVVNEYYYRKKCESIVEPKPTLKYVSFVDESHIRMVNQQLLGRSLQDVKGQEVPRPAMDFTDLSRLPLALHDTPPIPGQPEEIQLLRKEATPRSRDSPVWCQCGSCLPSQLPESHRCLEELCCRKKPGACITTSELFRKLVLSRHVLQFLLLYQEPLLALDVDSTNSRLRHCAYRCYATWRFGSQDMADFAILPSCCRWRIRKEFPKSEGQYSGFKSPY
# Blood [2] = test: Inhibition of IL1-beta release in LPS/ATP stimulated human whole blood; type: functional, tissue-based
# P2X purinoceptor 7 [3] = biological target: T2, P2X purinoceptor 7 (Rattus norvegicus, UniProt Q64663); test: Antagonist activity at rat recombinant P2X7 receptor assessed as inhibition of BzATP induced calcium flux by FLIPR assay; type: functional
# T2 sequence (Q64663 whole entry): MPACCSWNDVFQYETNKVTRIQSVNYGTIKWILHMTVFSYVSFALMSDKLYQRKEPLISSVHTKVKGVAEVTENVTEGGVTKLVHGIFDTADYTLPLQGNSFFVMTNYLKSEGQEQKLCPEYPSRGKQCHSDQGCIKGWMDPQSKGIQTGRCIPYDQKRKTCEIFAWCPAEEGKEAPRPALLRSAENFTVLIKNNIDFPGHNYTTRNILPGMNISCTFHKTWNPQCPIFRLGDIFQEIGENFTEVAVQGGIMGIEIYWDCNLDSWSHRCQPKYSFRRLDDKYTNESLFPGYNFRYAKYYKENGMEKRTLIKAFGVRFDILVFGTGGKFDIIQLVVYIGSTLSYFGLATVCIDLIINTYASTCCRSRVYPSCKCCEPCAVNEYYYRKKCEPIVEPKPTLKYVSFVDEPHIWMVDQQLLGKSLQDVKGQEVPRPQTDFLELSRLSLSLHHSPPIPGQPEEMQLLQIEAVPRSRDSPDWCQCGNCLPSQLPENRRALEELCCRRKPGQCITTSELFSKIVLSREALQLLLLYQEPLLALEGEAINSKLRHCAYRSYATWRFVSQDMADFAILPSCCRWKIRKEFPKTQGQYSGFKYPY
# [4] = Aqueous solubility of the compound; type: physicochemical; conditions: buffer
# [5] = Oral bioavailability in rat; type: ADME, organism-based; conditions: in vivo
# [6] = Metabolic stability in rat liver microsomes assessed as compound remaining after 1 hr; type: ADME, Microsome; conditions: read-out: Stability
# [7] = Plasma clearance in rat at 5 mg/kg, iv; type: ADME, organism-based; set-up: dose 5 mg/kg, route intravenous
# [8] = Half life in rat at 5 mg/kg, iv; type: ADME, organism-based; set-up: dose 5 mg/kg, route intravenous; conditions: in vivo
# [9] = Volume of distribution at steady state in rat at 5 mg/kg, iv; type: ADME, organism-based; set-up: dose 5 mg/kg, route intravenous; conditions: in vivo, read-out: Vdss
# [10] = Metabolic stability in rat liver microsomes assessed as compound remaining after 25 mins; type: ADME, Microsome; conditions: read-out: Stability
# Blood [11] = test: Inhibition of IL18 release in LPS/ATP stimulated human whole blood; type: functional, tissue-based
# [12] = biological target: P2Y purinoceptor 2 (Homo sapiens) (UniProt P41231); test: Antagonist activity at P2Y2 receptor at 10 uM; type: functional
# [13] = biological target: P2X2/P2X3 heterotrimeric receptor (Homo sapiens) (UniProt Q9UBL9+P56373); test: Antagonist activity at P2X2/3 receptor at 10 uM; type: functional
# [14] = biological target: T3, P2X purinoceptor 3 (Homo sapiens) (UniProt P56373); test: Antagonist activity at P2X3 receptor at 10 uM; type: functional
# T3 sequence (whole entry): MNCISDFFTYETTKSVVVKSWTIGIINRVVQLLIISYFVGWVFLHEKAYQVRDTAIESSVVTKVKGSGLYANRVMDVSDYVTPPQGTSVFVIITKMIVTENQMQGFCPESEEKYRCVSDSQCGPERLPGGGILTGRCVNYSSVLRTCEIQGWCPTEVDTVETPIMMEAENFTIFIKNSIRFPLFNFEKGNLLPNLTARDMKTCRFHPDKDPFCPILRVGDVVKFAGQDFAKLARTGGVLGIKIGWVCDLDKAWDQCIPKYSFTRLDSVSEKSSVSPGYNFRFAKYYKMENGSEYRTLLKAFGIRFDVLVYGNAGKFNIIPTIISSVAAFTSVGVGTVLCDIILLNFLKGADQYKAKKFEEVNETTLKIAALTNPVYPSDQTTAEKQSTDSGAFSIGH
# [15] = biological target: T4, P2X purinoceptor 4 (Homo sapiens) (UniProt Q99571); test: Antagonist activity at P2X4 receptor at 10 uM; type: functional
# T4 sequence (whole entry): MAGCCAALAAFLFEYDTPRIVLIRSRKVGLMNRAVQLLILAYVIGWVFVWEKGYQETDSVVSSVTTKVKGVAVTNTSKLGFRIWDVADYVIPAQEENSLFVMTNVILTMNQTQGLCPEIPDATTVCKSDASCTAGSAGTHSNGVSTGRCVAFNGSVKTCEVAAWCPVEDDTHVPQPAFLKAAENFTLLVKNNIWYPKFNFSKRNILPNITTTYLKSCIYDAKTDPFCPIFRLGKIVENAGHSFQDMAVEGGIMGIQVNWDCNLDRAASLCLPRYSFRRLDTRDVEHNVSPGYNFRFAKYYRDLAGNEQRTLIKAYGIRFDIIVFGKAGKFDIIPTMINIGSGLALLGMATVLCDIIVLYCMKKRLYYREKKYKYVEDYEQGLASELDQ
# P2Y purinoceptor 2 (Homo sapiens), sequence (P41231 whole entry): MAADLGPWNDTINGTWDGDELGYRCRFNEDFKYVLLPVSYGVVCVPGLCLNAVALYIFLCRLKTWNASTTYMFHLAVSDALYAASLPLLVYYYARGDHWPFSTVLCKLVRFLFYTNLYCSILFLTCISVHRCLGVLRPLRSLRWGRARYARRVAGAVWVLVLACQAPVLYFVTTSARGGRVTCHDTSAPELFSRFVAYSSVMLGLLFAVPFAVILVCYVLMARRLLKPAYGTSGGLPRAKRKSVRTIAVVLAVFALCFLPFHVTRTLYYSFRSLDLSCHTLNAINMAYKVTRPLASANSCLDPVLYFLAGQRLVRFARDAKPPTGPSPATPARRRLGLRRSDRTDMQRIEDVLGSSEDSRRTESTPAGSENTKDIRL
Compound,IC50 (P2X purinoceptor 7 [1]) [nM],IC50 (Blood [2]) [nM],IC50 (P2X purinoceptor 7 [3]) [nM],further results
CC(C)C1CN(C(=O)Nc2ccc(Cl)cc2)CCN1C(=Nc1cccc2c1CCNC2)NC#N (configuration not stated),110,210,180,–
CC(C)C1CN(C(=O)Nc2cccc(F)c2)CCN1C(=Nc1cccc2occc12)NC#N (configuration not stated),24900,–,–,–
Cc1ccc2c(N=C(NC#N)N3CCN(C(=O)Nc4ccc(Cl)cc4)CC3C(C)C)cccc2n1 (configuration not stated),93,–,151,solubility [4]: 19 µg/mL; bioavailability [5]: 5%; remaining at 1 h [6]: 74%; clearance [7]: 23.3 mL/min/kg; half-life [8]: 4.4 h; Vd [9]: 11.8 L/kg
COc1ccc(NC(=O)N2CCN(C(=Nc3ccccc3C)NC#N)CC2c2ccccc2)cc1OC (configuration not stated),25,–,178,–
CC(C)C1CN(C(=Nc2cccc3ncccc23)NC#N)CCN1C(=O)Nc1ccc(Cl)cc1 (configuration not stated),67,880,93,–
Cc1ccccc1N=C(NC#N)N1CCN(Cc2ccc(Cl)cc2)C(c2ccccc2)C1 (configuration not stated),> 10000,–,> 10000,–
Cc1ccccc1N=C(NC#N)N1CCN(S(=O)(=O)c2ccc(Cl)cc2)C(c2ccccc2)C1 (configuration not stated),540,–,4060,–
Cc1ccc(N/C(=N\C#N)N2CCN(C(=O)Nc3ccc(Cl)cc3)CC2C(C)C)c2cccnc12 (configuration not stated),–,–,–,remaining at 1 h [6]: 64%
Cc1ccccc1N=C(NC#N)N1CCN(C(=O)Nc2ccc(Cl)cc2)CC1C(C)C (configuration not stated),60,–,125,–
CC(C)C1CN(C(=O)Nc2cccc(F)c2)CCN1C(=Nc1cccc2[nH]ncc12)NC#N (configuration not stated),250,1590,–,–
COc1ccc(CC(=O)N2CCN(C(=Nc3ccccc3C)NC#N)CC2c2ccccc2)cc1OC (configuration not stated),630,–,–,–
CC(C)C1CN(C(=O)Nc2cccc(F)c2)CCN1C(=Nc1cccc2c1CCCN2)NC#N (configuration not stated),60,460,–,–

# More lines, main results first:
IC50 (P2X purinoceptor 7 [1]) [nM],IC50 (Blood [2]) [nM],IC50 (P2X purinoceptor 7 [3]) [nM],Compound,further results
1030,–,290,Cc1ccccc1N=C(NC#N)N1CCN(C(=O)N(C)c2ccc(Cl)cc2)C(c2ccccc2)C1 (configuration not stated),–
130,12200,56,N#CNC(=Nc1cccc2[nH]ccc12)N1CCN(C(=O)Nc2ccc(Cl)cc2)C(c2ccccc2)C1 (configuration not stated),–
6400,–,10300,Cc1ccccc1N/C(=N/C(N)=O)N1CCN(C(=O)Nc2ccc(Cl)cc2)C(c2ccccc2)C1 (configuration not stated),–
112,980,110,Cc1ccccc1N/C(=N\C#N)N1CCN(C(=O)Nc2ccc(Cl)cc2)C(C(C)C)C1 (configuration not stated),–
40,121,57,CC(C)C1CN(C(=O)Nc2ccc(Cl)cc2)CCN1C(=Nc1cccc2ncccc12)NC#N (configuration not stated),remaining at 1 h [6]: 43%; remaining at 25 min [10]: 43%; clearance [7]: 53.3 mL/min/kg
310,–,3110,Cc1ccccc1N/C(=C/[N+](=O)[O-])N1CCN(C(=O)Nc2ccc(Cl)cc2)C(c2ccccc2)C1 (configuration not stated),–
132,1190,95,Cc1ccccc1N=C(NC#N)N1CCN(C(=O)Nc2ccc(Cl)cc2)C(c2ccccc2)C1 (configuration not stated),IC50 (Blood [11]): 1260 nM; clearance [7]: 68.3 mL/min/kg; half-life [8]: 0.9 h; Vd [9]: 5.3 L/kg
45,470,110,CC(C)C1CN(C(=O)Nc2ccc(Cl)cc2)CCN1/C(=N/C#N)Nc1cccc2[nH]ccc12 (configuration not stated),–
–,120,–,Cc1ccc2c(N/C(=N\C#N)N3CCN(C(=O)Nc4ccc(Cl)cc4)CC3C(C)C)cccc2n1 (configuration not stated),Activity [12]: inactive; Activity [13]: inactive; Activity [14]: inactive; Activity [15]: inactive
780,–,620,Cc1ccccc1NC(=O)N1CCN(C(=O)Nc2ccc(Cl)cc2)C(c2ccccc2)C1 (configuration not stated),–
–,2640,–,CC(C)C1CN(C(=O)Nc2ccc(Cl)cc2)CCN1/C(=N/C#N)Nc1cccc2nc(F)ccc12 (configuration not stated),remaining at 1 h [6]: 60%
480,–,1070,CN(C)Cc1ccccc1N=C(NC#N)N1CCN(C(=O)Nc2ccc(Cl)cc2)C(c2ccccc2)C1 (configuration not stated),–
1660,–,5190,Cn1cnc2c(N=C(NC#N)N3CCN(C(=O)Nc4ccc(Cl)cc4)C(c4ccccc4)C3)cccc21 (configuration not stated),–
1330,–,2040,N#C/N=C(\Nc1cccnc1)N1CCN(C(=O)Nc2ccc(Cl)cc2)C(c2ccccc2)C1 (configuration not stated),–
